Legend:
[1] = tested on: E. coli isolated from a patient with urinary tract infection and E. coli ATCC 25992; test: Viable counts of E. coli in urine surrounding the filled retention balloon; assay type: cell-based; conditions: solution in retention balloon, start 10^5 cfu/ml, 37° C.
[2] = Kinetics of NO release from the retention balloon (headspace chemiluminescence); assay type: physicochemical; conditions: balloon filled with ascorbic acid/nitrite solution; NO-free air flush 4.5 L/min
Description: The kinetics of NO release from the retention balloon was monitored in separate experiments. The catheter was placed in the flask and after filling the retention balloon with the ascorbic acid/nitrite solution the flask was closed. Synthetic NO-free air was flushed via an inlet at a rate of 4.5 L/min and headspace NO was continuously measured from an outlet by a rapid-response chemiluminescence system (Aerocrine AB, Stockholm, Sweden).

E. coli = test: Comparative experiment with traditional antibiotic in retention balloon or directly in urine
Description: An overnight culture was added to 25 ml of urine to a final density of 10^5 CFU/ml. The urine was placed in long-necked 50 ml flasks with a shape resembling the urinary bladder and the urethra. An all-silicone catheter (Argyle, Sherwood Medical, Tullamore, Ireland) was placed in the flask and the retention balloon was filled with 10 ml of saline containing ascorbic acid (10 mM) and sodium nitrite (5 mM). The pH of the solution was adjusted to 2.5 using hydrochloric acid (3 M). Ascorbic acid and nitrite were prepared and mixed immediately before administration. Ascorbic acid solution alone (pH 2.5) was used as control. After filling the retention balloons the catheter was gently pulled outwards and fixed at the neck whereby the flask opening was sealed off. Then the flasks were turned up side down and incubated at 37° C. for 24 h. At the end of the experiment the urine was serially diluted and further cultured on blood agar plates for determination of viable counts (cfu/ml). All experiments were made in quadruplicate.
In a separate flask ciprofloxacin was added directly to the urine.

O=C1O[C@H]([C@@H](O)CO)C(O)=C1O [ascorbic acid alone, ascorbic acid]
bacterial counts after 24 h [1]: 10^8 cfu/ml

[N]=O [NO, nitric oxide]
half-time of decrease of NO release rate from the balloons [2]: about 30 min

O=C(O)c1cn(C2CC2)c2cc(N3CCNCC3)c(F)cc2c1=O [ciprofloxacin]
antibacterial effect in urine (E. coli; antibiotic added directly to the urine): effectively killed the bacteria
antibacterial effect in the urine surrounding the balloon (E. coli; antibiotic placed in the retention balloon): no antibacterial effect

Source: patent publication US20070239107A1, “Device and Method for Administering Therapeutic Agents” (priority 2003, published 2007)
